In patent publication US5077296A, “Method for treating equine navicular disease with pentoxifylline, and composition containing pentoxifylline for administrating to horses” (priority 1987, dated 1991):
“And” between values parts separate entries of the source, which are not always exact repeats. Equal values may be shown once.

Legend:
navicular disease [1] = details: cited from earlier work
navicular disease [2] = experiment: Conventional navicular disease treatments (background discussion); assay type: in vivo; details: horse #18 (Molson), intermittent lameness over previous 5 months
Description: To illustrate the advantages of pentoxifylline over existing navicular disease treatments, the following conventional treatments will be discussed herein.

[3] = cited from earlier work
navicular disease [4] = experiment: Long term efficacy: follow up evaluation of soundness after termination of the 6 week treatment; assay type: in vivo, horse
Description: Ten horses received a further follow up evaluation after termination of the 6 week treatment period. The horses are listed below, along with the date of visit (weeks post-initiation of study) and the soundness evaluation.

[5] = in vivo
Description: (§1) Follow-up observations occurred weekly during the six week treatment period, and for a final time approximately 4 weeks after the 6 week treatment period was over. The follow-up visits consisted of a lameness evaluation on the lunge line, at the walk and at rest. Owners/trainers were asked to report any side effects observed that may or may not have been related to Pentoxifylline therapy, and any other problems that had arisen during the week, concurrent medications administered for other causes, and the horse's progress while being exercised. Blood samples were drawn prior to first treatment, at 3 weeks, and at 6 weeks for routine hematological and clinical chemistry profiles. Samples were drawn prior to lameness examination after the horse had been resting quietly in the stall. Most samples were drawn early in the afternoon, and were immediately submitted to Metro Animal Laboratories, Bloor Street, Toronto.

navicular disease [6] = experiment: Efficacy of oral pentoxifylline in the treatment of navicular disease in horses (6 week lameness study); assay type: in vivo, horse
Description: As previously mentioned, it is preferred to administer daily doses of pentoxifylline for a prescribed period of time in order to alleviate lameness caused by navicular disease. […] It is preferred to administer the daily doses tid. In this regard, powder, tablet or capsule formulations, containing between 2-10 gm of pentoxifylline should be administered for this purpose. As previously indicated, the amount of daily doses is dependent on a variety of factors, including the size of the horse being treated.
The purpose of the following study was to assess the efficacy of pentoxifylline in the treatment of navicular disease in horses; to establish an appropriate dosage and treatment interval, and to identify adverse effects from treatment.
Twenty-seven horses entered the study between September 1985 and March 1986.
Pentoxifylline was supplied as an oral powder prepared in individual plastic vials of 2 gm Pentoxifylline mixed with 4 gm icing sugar, to ensure palatability.
Diagnosis of navicular disease was made using the following criteria:
1) history - including clinical and previous treatment history.
lameness observed at walk and while lunging to the left and to the right.
3) diagnostic posterior digital nerve block
horses not sound following bilateral desensitization of the posterior digital nerves were not admitted into the study
4) radiographic examination of confirmation of disease as noted by classical navicular lesions, on a minimum of three views
Treatment was administered daily for 42 days.
Horses were characterized as either severely lame, moderately lame, or slightly lame, as follows:
Treatment response was classified as excellent, good, fair, or poor.
Soundness was subjectively rated by the veterinarian on a percent basis. Percent soundness at the study's onset was subtracted from percent soundness at the study's conclusion, and this difference was plotted as a histogram (graph 2), to show the magnitude of improvement with the 6 week course of treatment. At week 4 there was an average of 57% improvement. For instance, horse number 3 was rated as 25% sound at the onset of the study, and 100% sound after six weeks, yielding an improvement of 75%.

[7] = Side effects during the study
Description: as §1

[8] = duration of lameness 2 years-5 years (5)
[9] = duration of lameness 5 years (4)
[10] = duration of lameness 6 months (7)
[11] = duration of lameness <6 months, >2 years (11)
[12] = lameness at onset moderate (11)

CCCCC1C(=O)N(c2ccccc2)N(c2ccccc2)C1=O [phenylbutazone]
side effects (navicular disease [1]; in vivo): risk of gastric and cecal ulcers and kidney damage | response to previous treatment (navicular disease [2]): responded

CC(COc1ccccc1)NC(C)C(O)c1ccc(O)cc1 (stereo not shown) [Isoxsuorine]
efficacy (navicular disease [1]; generic, unpredictable results): Approximately 50%

CC(=O)CC(c1ccccc1)c1c(O)c2ccccc2oc1=O (racemic) [Warfarin]
safety disadvantage (navicular disease [1]; accidental lacerations or injuries): can be fatal due to hemmorrhage

CC(=O)CCCCn1c(=O)c2c(ncn2C)n(C)c1=O [pentoxifylline, 1-(5-oxohexyl)-3,7-dimethylxanthine]
Sweating in humans ([3]; human side effect): occasional human side effect | lag period to maximum response in man ([3]; lag in horses said to be similar): two week period | horses judged to be sore again after cessation of treatment (navicular disease [4]; 2 weeks after cessation, Innovator, Capital Gains, Ensign): Three horses | follow up soundness (navicular disease [4]; horse 1 Jake, 9 weeks post-initiation): 80 % sound | follow up soundness (navicular disease [4]; horse 1 Jake, 11 weeks, being ridden): still sound | follow up soundness (navicular disease [4]; horse 1 Jake, 20 weeks, being ridden): 100 % sound | Status (navicular disease [4]; horse 1 Jake, greater than 6 weeks): Improved | Status (navicular disease [4]; horse 2 Lucky Lion, 2 gm once per day maintenance at 10 weeks): Improved | Status (navicular disease [4]; horse 3 Remeny): Improved | follow up soundness (navicular disease [4]; horse 3 Remeny, 12 weeks): hunting sound | follow up soundness (navicular disease [4]; horse 3 Remeny, 18 weeks): very sound | Status (navicular disease [4]; horse 4 Ensign): Same | follow up soundness (navicular disease [4]; horse 4 Ensign, 8 weeks): sore RF | follow up soundness (navicular disease [4]; horse 4 Ensign, 11 weeks, when given 2 gm/day): sound again | Status (navicular disease [4]; horse 5 Wessex): Improved | follow up soundness (navicular disease [4]; horse 5 Wessex, 15 weeks, compared with end of the 6 weeks): sounder than | Status (navicular disease [4]; horse 11 Capital Gains): Improved | follow up soundness (navicular disease [4]; horse 11 Capital Gains, 8 weeks, without drug): less sound | Status (navicular disease [4]; horse 13 Peaches 'N Cream): Same | follow up soundness (navicular disease [4]; horse 13 Peaches 'N Cream, 11 weeks, compared with when entered study): as sound | Status (navicular disease [4]; horse 14 Cash in McCue): Improved | follow up soundness (navicular disease [4]; horse 14 Cash in McCue, 12 weeks): 100 % sound | Status (navicular disease [4]; horse 16 B. E. Skipper): Improved | follow up soundness in field (navicular disease [4]; horse 16 B. E. Skipper, 11 weeks, looks sound in field): 100 % sound | follow up soundness (navicular disease [4]; horse 16 B. E. Skipper, 11 weeks, riding again): 90 % sounder | Status (navicular disease [4]; horse 20 Innovator): Worse | follow up soundness to LT (navicular disease [4]; horse 20 Innovator, 7 weeks): 80 % sounder | follow up soundness to RT (navicular disease [4]; horse 20 Innovator, 7 weeks): 90 % sounder | follow up lameness (navicular disease [4]; horse 20 Innovator, 9 weeks, compared with before treatment): as lame at 9 weeks as he had been prior to treatment | horses considered sounder than at the end of the 6 week treatment period (navicular disease [4]; of 10 horses followed up): Seven of these 10 horses | pattern when drug administration ceased (navicular disease [4]; other horses): regressed rapidly when treatment ended | pattern when drug administration ceased (navicular disease [4]; some cases): maintained the improvement noted at 6 weeks | Baso mean [5]: 0.5% | Cl mean [5]: 98.9 mmol/L | Clinical chemistry values vs equine reference range [5]: within the reference range for the equine species | Hematology values vs normal limits [5]: within normal limits throughout the study | Mean clinical chemistry values vs baseline [5]: did not differ significantly | Number of horses with platelets increased since baseline [5]: 20 horses | Platelets increase [5]: 4,520 | clinical effect on blood chemistry [5]: no clinical effect | horses with lower platelet count at week 6 than at week 3 [5]: 13 horses | response over time (navicular disease [6]; 1 week): evident at 1 week | response over time (navicular disease [6]; 2 and 3 weeks): marked at 2 and 3 weeks | response at dose (navicular disease [6]; 2 gm bid): not considered consistently optimal | response at dose (navicular disease [6]; 6 gram dosage divided tid): achieved the best results | response over time (navicular disease [6]; between 4 and 6 weeks): did not regress between 4 and 6 weeks | excellent responses, % of horses (navicular disease [6]; cases of greater than 5 years duration, 4 horses): 50% | excellent responses, number of horses (navicular disease [6]; cases of greater than 5 years duration, out of 4 horses): 2 horses | effect on navicular lameness (navicular disease [6]; daily doses between 6 gm and 30 gm for 4-6 weeks): effective in completely eliminating navicular lameness | Response excellent, number of horses (navicular disease [6]; [8]): 2 horses | Response good, number of horses (navicular disease [6]; [8]): 1 horses | Response poor, number of horses (navicular disease [6]; [8]): 1 horses | Response excellent, number of horses (navicular disease [6]; [9]): 2 horses | Response fair, number of horses (navicular disease [6]; [9]): 1 horses | Response good, number of horses (navicular disease [6]; [9]): 1 horses | Response excellent, number of horses (navicular disease [6]; [10]): 4 horses | Response good, number of horses (navicular disease [6]; [10]): 1 horses | Response poor, number of horses (navicular disease [6]; [10]): 1 horses | Response excellent, number of horses (navicular disease [6]; [11]): 7 horses | Response fair, number of horses (navicular disease [6]; [11]): 1 horses | Response good, number of horses (navicular disease [6]; [11]): 2 horses | Response poor, number of horses (navicular disease [6]; [11]): 1 horses | excellent responses, % of horses (navicular disease [6]; duration of lameness up to two years, 18 horses): 61% | excellent responses, number of horses (navicular disease [6]; duration of lameness up to two years, out of 18 horses): 11 horses | treatment response (navicular disease [6]; horse #9 (It's Casual), six week course, previous bilateral neurectomy): never showed significant improvement | treatment assessment (navicular disease [6]; horse #15 (Cheska)): refractory to pentoxifylline treatment | evaluated sounder (navicular disease [6]; horse #15 (Cheska), end of 4 weeks, dosage increased to 2 gm tid): 90% | treatment response (navicular disease [6]; horse #15 (Cheska), first 3 weeks, 2 gm bid, drug not administered properly): virtually no response | lameness (navicular disease [6]; horse #15 (Cheska), weeks 5 and 6, after jumping in 4th week): as lame as at the beginning | treatment assessment (navicular disease [6]; horse #18 (Molson), irregular treatment): refractory to treatment | treatment response (navicular disease [6]; horse #18 (Molson), week 3 and week 5): marked improvement | lameness (navicular disease [6]; horse #18 (Molson), week 6, inconsistent drug administration): as lame as at the onset of the study | percent soundness after six weeks (navicular disease [6]; horse number 3, 25% sound at onset): 100% | improvement in percent soundness (navicular disease [6]; horse number 3, six weeks vs onset): 75% | response by lameness at onset (navicular disease [6]; horses with moderate lameness): preponderance of excellent responses | Response excellent, number of horses (navicular disease [6]; [12]): 7 horses | Response fair, number of horses (navicular disease [6]; [12]): 2 horses | Response good, number of horses (navicular disease [6]; [12]): 1 horses | Response good, number of horses (navicular disease [6]; lameness at onset severe (8)): 1 horses | Response poor, number of horses (navicular disease [6]; lameness at onset severe (8)): 3 horses | Response good, number of horses (navicular disease [6]; lameness at onset slight (2)): 2 horses | Response excellent, number of horses (navicular disease [6]; lameness at onset slight-moderate (6)): 6 horses | Response fair, number of horses (navicular disease [6]; n = 25, oral, 42 days): 2 horses | Response good, number of horses (navicular disease [6]; n = 25, oral, 42 days): 5 horses | Response poor, number of horses (navicular disease [6]; n = 25, oral, 42 days): 3 horses | Response excellent, number of horses (navicular disease [6]; n = 25, oral, 42 days, 2 gm bid or tid): 15 horses | Response excellent, % of horses (navicular disease [6]; oral, 4 to 6 week treatment): 63% | Response fair, % of horses (navicular disease [6]; oral, 4 to 6 week treatment): 8% | Response good, % of horses (navicular disease [6]; oral, 4 to 6 week treatment): 20% and 17% | Response poor, % of horses (navicular disease [6]; oral, 42 days): 13% | time of maximal response (navicular disease [6]; response over time, graph 1): 4 weeks | effect on lameness of navicular disease (navicular disease [6]; varying severity and duration): effective in alleviating the lameness | average improvement in percent soundness (navicular disease [6]; week 4, subjective rating by veterinarian, difference from onset): 57% | Sweating episodes ([7]; horse 14 Cash in McCue, after 2 weeks): 5 episodes | Stocked up, number of horses ([7]; horse 15 Cheska, RF at week 6): 1 horses | Colic, number of horses ([7]; horse 23 Greek Anthem, between weeks 2 and 3, previous history of colic): 1 horses | Sweating, number of horses ([7]; horses 14 and 20): 2 horses | Colic, relation to drug ([7]; in vivo): unrelated | Stocked up, relation to drug ([7]; in vivo): unrelated | harmful side effects ([7]; in vivo): have not been identified | horses with unusual occurrences ([7]; in vivo): Four horses | instances judged drug-related side effect ([7]; throughout the study): 1
